Test results published in ChEMBL document CHEMBL6127012, “Discovery of DS-1093a: An oral hypoxia-inducible factor prolyl hydroxylase inhibitor for the treatment of renal anemia” (Bioorg Med Chem Lett, 2024).

How the values were obtained:
cells = conditions: Homo sapiens, Hep3B
Description: Induction of EPO production in human Hep3B cells

Cynomolgus monkey = test: Anti-leukemia activity in cynomolgus monkey assessed as dose required to cause 10 fold increase in plasma EPO level
[1] = Toxicity in rat assessed as increase in AST level […] at 10 mg/kg, po measured on day 4 (reference value: 71 IU/L); assay type: organism-based; conditions: in vivo, 96 h, time 4 day
[2] = Toxicity in rat assessed as increase in ALT level […] at 10 mg/kg, po measured on day 4 (reference value: 38 IU/L); assay type: organism-based; conditions: in vivo, 96 h, time 4 day
[3] = AUC (0 to 24 hrs) in rat at 10 mg/kg, po measured on day 4; assay type: ADME, organism-based; conditions: in vivo, time 4 day
[4] = Toxicity in rat assessed as increase in AST level […] at 100 mg/kg, po measured on day 4 (reference value: 71 IU/L); assay type: organism-based; conditions: in vivo, 96 h, time 4 day
[5] = Toxicity in rat assessed as increase in ALT level […] at 100 mg/kg, po measured on day 4 (reference value: 38 IU/L); assay type: organism-based; conditions: in vivo, 96 h, time 4 day
[6] = AUC (0 to 24 hrs) in rat at 100 mg/kg, po measured on day 4; assay type: ADME, organism-based; conditions: in vivo, time 4 day
Rattus norvegicus = test: Hematopoietic effect on adenine-induced renal anemia po dosed rat model assessed as increase in hemoglobin level administered for 4 days and measured on day 5,7,9,11 and 14; assay type: functional, organism-based; conditions: dose 0.3-3 mg/kg, time 4.0 day
[7] = Lipophilicity, logD of the compound; assay type: physicochemical; conditions: octanol/water
[8] = Metabolic stability in rat plasma assessed as parent compound remaining; assay type: ADME, cell-free
[9] = Cmax in rat at 3 mg/kg, po measured on day 4; assay type: ADME, organism-based; conditions: in vivo, time 4 day
[10] = AUC in rat at 3 mg/kg, po measured on day 4; assay type: ADME, organism-based; conditions: in vivo, time 4 day
[11] = Half life in rat at 3 mg/kg, po measured on day 4; assay type: ADME, organism-based; conditions: in vivo, time 4 day
[12] = Plasma protein binding in rat assessed as free fraction; assay type: ADME, cell-free
[13] = AUC (0 to 24 hrs) in rat at 0.54 mg/kg, po measured for 14 days; assay type: ADME, organism-based; conditions: in vivo, time 14 day
[14] = AUC (0 to 24 hrs) in rat at 10 mg/kg, po measured for 14 days; assay type: ADME, organism-based; conditions: in vivo, time 14 day
[15] = Toxicity in rat assessed as NOAEL at 10 mg/kg, po measured for 14 days; assay type: organism-based; conditions: in vivo, 336 h, time 14 day
[16] = Partition coefficient, Kp of compound in rat liver to plasma; assay type: ADME, cell-free; conditions: liver and plasma
Egl nine homolog 1 = Egl nine homolog 1 (Homo sapiens, UniProt Q9GZT9)
Sequence of Egl nine homolog 1 (Q9GZT9 whole entry): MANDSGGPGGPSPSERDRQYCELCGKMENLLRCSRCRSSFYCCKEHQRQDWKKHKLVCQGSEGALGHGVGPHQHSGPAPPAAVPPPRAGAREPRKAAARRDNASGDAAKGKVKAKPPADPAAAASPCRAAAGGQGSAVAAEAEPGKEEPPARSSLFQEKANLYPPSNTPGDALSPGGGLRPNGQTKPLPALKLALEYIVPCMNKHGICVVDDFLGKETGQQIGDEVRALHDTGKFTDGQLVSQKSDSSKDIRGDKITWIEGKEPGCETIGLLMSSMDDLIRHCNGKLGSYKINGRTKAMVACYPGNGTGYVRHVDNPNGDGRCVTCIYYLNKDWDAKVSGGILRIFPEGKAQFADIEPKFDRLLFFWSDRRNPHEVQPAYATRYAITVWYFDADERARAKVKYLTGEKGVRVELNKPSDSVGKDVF
Description: Inhibition of HIF-PHD2 (unknown origin)

Structure (SMILES)	EC50 (cells)	other results
CC(C)(C)c1ccc(N2CCC(Cc3nc(C(=O)NCC(=O)O)c(O)c(C(F)F)n3)CC2)cc1	19 µM	–
CCCCc1ccc(N2CCC(Cc3nc(C)c(O)c(C(=O)NCC(=O)O)n3)CC2)cc1	1.6 µM	–
Cc1nc(CC2CCN(c3ccc(C(C)(C)C)cc3)CC2)nc(C(=O)NCC(=O)O)c1O	1.5 µM	–
CCc1nc(Cc2ccc(-c3ccccc3)cc2)nc(C(=O)NCC(=O)O)c1O	16 µM	–
Cc1nc(Cc2cnc(-c3ccc(C(C)(C)C)cc3)nc2)nc(C(=O)NCC(=O)O)c1O	1.9 µM	–
CSc1nc(CC2CCN(c3ccc(C(C)(C)C)cc3)CC2)nc(C(=O)NCC(=O)O)c1O	3 µM	–
Cc1nc(CC2CCN(c3cccc(Cc4ccccc4)c3)CC2)nc(C(=O)NCC(=O)O)c1O	3.9 µM	–
Cc1nc(Cc2ccc(-c3ccccc3)cc2)nc(C(=O)N[C@@H](C)C(=O)O)c1O	14 µM	–
Cc1nc(CC2CCN(c3ccc(-c4ccccc4)cc3)CC2)nc(C(=O)NCC(=O)O)c1O	0.42 µM	EC10 (Cynomolgus monkey): 1.1 mg/kg
Cc1ccc(N2CCC(Cc3nc(C)c(O)c(C(=O)NCC(=O)O)n3)CC2)cc1	10 µM	–
CCCc1ccc(N2CCC(Cc3nc(C)c(O)c(C(=O)NCC(=O)O)n3)CC2)cc1	1.6 µM	–
Cc1nc(CC2CCN(c3cccc(C(C)(C)C)c3)CC2)nc(C(=O)NCC(=O)O)c1O	6.3 µM	–
Cc1nc(CC2CCN(c3ccc(C(F)(F)F)cc3)CC2)nc(C(=O)NCC(=O)O)c1O	5.5 µM	–
Cc1nc(Cc2ccc(-c3ccc(C(C)(C)C)cc3)nc2)nc(C(=O)NCC(=O)O)c1O	1 µM	–
Cc1nc(Cc2ccc(-c3ccccc3)cc2)nc(C(=O)NCC(=O)O)c1O	8.4 µM	EC10 (Cynomolgus monkey): 2.2 mg/kg
Cc1nc(CC2CCN(c3ccc(F)cc3)CC2)nc(C(=O)NCC(=O)O)c1O	9.9 µM	–
Cc1nc(Cc2cnc(-c3ccc(C(C)(C)C)cc3)s2)nc(C(=O)NCC(=O)O)c1O	3.1 µM	–
Cc1nc(Cc2ccc(-c3ccc(C(C)(C)C)cc3)cn2)nc(C(=O)NCC(=O)O)c1O	1.9 µM	–
Cc1nc(Cc2ccc(-c3ccccc3)cc2)nc(C(=O)NCC(=O)O)c1C	–	IC50 (Egl nine homolog 1): > 100 µM
Cc1nc(CC2CCN(c3ccc(Cc4ccccc4)cc3)CC2)nc(C(=O)NCC(=O)O)c1O	0.99 µM	EC10 (Cynomolgus monkey): 0.5 mg/kg; Kp [16]: 9.6
Cc1nc(CC2CCN(c3ccc(Cl)cc3)CC2)nc(C(=O)NCC(=O)O)c1O	6.9 µM	–

Second part, led by results:

EC50 (cells)	Structure (SMILES)	other results
0.47 µM	Cc1nc(CC2CCN(c3ccc(-c4ccc(CO)cc4)cc3)CC2)nc(C(=O)NCC(=O)O)c1O	–
11 µM	Cc1nc(CCCCC2CCN(c3ccc(C(C)(C)C)cc3)CC2)nc(C(=O)NCC(=O)O)c1O	–
2.7 µM	Cc1nc(CC2CCN(c3ccc(Cc4ccc(CO)cc4)cc3)CC2)nc(C(=O)NCC(=O)O)c1O	–
0.44 µM	Cc1nc(CC2CCN(c3ccc(-c4ccc(C[C@@H](C)O)cc4)cc3)CC2)nc(C(=O)NCC(=O)O)c1O	EC10 (Cynomolgus monkey): 2.4 mg/kg; Activity [1]: 77 IU/L; Activity [2]: 40 IU/L; AUC at 96 h [3]: 15500 ng·h/mL; Activity [4]: 103 IU/L; Activity [5]: 54 IU/L; AUC at 96 h [6]: 197000 ng·h/mL
19 µM	Cc1nc(CC2CCCN(c3ccc(C(C)(C)C)cc3)CC2)nc(C(=O)NCC(=O)O)c1O (stereo not given)	–
27 µM	Cc1nc(CC2CCN(c3ccc(C(C)(C)C)cc3)C2)nc(C(=O)NCC(=O)O)c1O (stereo not given)	–
11 µM	Cc1nc(CCCC2CCN(c3ccc(C(C)(C)C)cc3)CC2)nc(C(=O)NCC(=O)O)c1O	–
0.84 µM	Cc1nc(CC2CCN(c3ccc(-c4ccc(C(=O)N(C)C)cc4)cc3)CC2)nc(C(=O)NCC(=O)O)c1O	–
0.84 µM	Cc1nc(CC2CCN(c3ccc(-c4ccc(C(C)(C)CO)cc4)cc3)CC2)nc(C(=O)NCC(=O)O)c1O	–
2.1 µM	Cc1nc(CC2CCN(c3ccc(Cc4ccc(CC(C)O)cc4)cc3)CC2)nc(C(=O)NCC(=O)O)c1O (stereo not given)	–
13 µM	Cc1nc(CCC2CCN(c3ccc(C(C)(C)C)cc3)CC2)nc(C(=O)NCC(=O)O)c1O	–
5.8 µM	Cc1nc(CC2CCN(c3ccc(Cc4ccc(C(=O)N(C)C)cc4)cc3)CC2)nc(C(=O)NCC(=O)O)c1O	–
0.49 µM	Cc1nc(CC2CCN(c3ccc(-c4ccc(C[C@H](C)O)cc4)cc3)CC2)nc(C(=O)NCC(=O)O)c1O	EC10 (Cynomolgus monkey): 3.5 mg/kg; Activity [1]: 79 IU/L; Activity [2]: 40 IU/L; AUC at 96 h [3]: 16200 ng·h/mL; Activity [4]: 97 IU/L; Activity [5]: 52 IU/L; AUC at 96 h [6]: 162000 ng·h/mL; Activity (Rattus norvegicus): Dose-Dependent Effect; logD [7]: 1.2; Stability [8]: 79%; Cmax [9]: 860 ng/mL; AUC at 96 h [10]: 4320 ng·h/mL; half-life [11]: 1 h; Fu [12]: 0.73%; AUC at 336 h [13]: 600 ng·h/mL; AUC at 336 h [14]: 88500 ng·h/mL; Activity [15]: Non-Toxic
3.2 µM	Cc1nc(CC2CCN(c3ccc(Cc4ccc(C(C)(C)CO)cc4)cc3)CC2)nc(C(=O)NCC(=O)O)c1O	–
0.55 µM	Cc1nc(CC2CCN(c3ccc(-c4ccc(CC(C)O)cc4)cc3)CC2)nc(C(=O)NCC(=O)O)c1O (racemic)	Kp [16]: 1.5
